Test results: PubChem BioAssay AID489040 (Sanford-Burnham Center for Chemical Genomics, 2010)
pEC50: −log10 of the molar value. The source made the active and inactive calls.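 The calls were made as follows: active = mean half-maximal activating concentration from the dose-response fit at or below a set limit; inactive = the rest.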

The compounds below were run against CHO-XBP1 luciferase reporter, IRE1-XBP1 UPR activation (assay: activators of IRE1-XBP1 UPR arm, dose response, counter-screen for apoptotic UPR arm activators, CHO-XBP1 cells, luminescence (AID 489040);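 also: reporter read after six hours of compound exposure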).
In the case of `Cc1cc(-n2c(C)cc(C(=O)CCl)c2C)no1`, the EC50 was > 80 µM (inactive).
For `COc1ccccc1N1CCN(/N=C/c2ccc(O)c(O)c2)CC1`, the EC50 was > 80 µM (inactive).
In the case of `Cc1c(C(=O)c2cccc3ccccc23)c2cccc3c2n1[C@H](CN1CCOCC1)CO3`, the EC50 was > 80 µM (inactive).
For `O=C(Nc1ccc(N2CCOCC2)cc1)c1ccc([N+](=O)[O-])o1`, the EC50 was > 80 µM (inactive).
For `CCc1cc2c(=O)[nH]c(-c3ccccn3)nc2s1`, the EC50 was > 80 µM (inactive).
With `COc1ccc(-c2cc3ccccc3oc2=O)cc1NC(=S)NC(=O)c1ccc2c(c1)OCCO2` the pEC50 was 5.37.
For `CCOC(=O)c1cnc(Nc2nc3ccccc3o2)nc1CSC(=S)N(CC)CC`, the pEC50 was 5.34.
`COc1cc([C@H]2c3[nH]c4ccccc4c3C[C@H]3C(=O)N4[C@@H](c5cc(OC)c(OC)c(OC)c5)c5[nH]c6ccccc6c5C[C@H]4C(=O)N23)cc(OC)c1OC` gave a pEC50 of 4.85.
With `Cc1ccc(NC(=O)Cn2ncc(Cl)c(Cl)c2=O)cc1S(=O)(=O)N1CCCCC1` the EC50 was > 80 µM (inactive).
`Cc1cc(C(=O)CCl)c(C)n1CCc1ccccc1` was tested, and the EC50 was > 80 µM (inactive).
For `CSc1nnc(NC(=O)c2nc(S(=O)(=O)Cc3ccc(C)cc3)ncc2Cl)s1`, the EC50 was > 80 µM (inactive).
With `O=C(CCN1C(=O)C2C3C=CC(C4CC34)C2C1=O)Oc1cccc2cccnc12` (configuration not stated) the EC50 was > 80 µM (inactive).
For `COc1ccc(N2C(=O)/C(=C/C=C/c3ccccc3[N+](=O)[O-])C(=O)NC2=S)cc1`, the EC50 was > 80 µM (inactive).
For `CCc1ccccc1NC(=S)N=Nc1c(O)n(C)c2ccc(S(=O)(=O)N3CCOCC3)cc12`, the EC50 was > 80 µM (inactive).
For `COc1ccc(N2C(=O)/C(=C/c3cccs3)C(=O)NC2=S)cc1`, the EC50 was > 80 µM (inactive).
In the case of `Cc1ccc(NC(=O)c2nc(S(=O)(=O)Cc3ccccc3C)ncc2Cl)cc1C`, the EC50 was > 80 µM (inactive).
`Cc1coc2c1C(=O)C(=O)c1c-2ccc2c(C)cccc12` was tested, and the EC50 was > 80 µM (inactive).
With `Cc1noc2ncnc(Sc3ccc(Cl)cc3)c12` the EC50 was > 80 µM (inactive).
With `COc1cc(SC#N)ccc1N=Cc1c(C)[nH]n(-c2ccc(C)c(C)c2)c1=O` the EC50 was > 80 µM (inactive).
With `Cc1ccc2cccc(NS(=O)(=O)c3ccccc3)c2n1` the EC50 was > 80 µM (inactive).
`O=C(Oc1c(CN2CCOCC2)cc(Cl)c2cccnc12)c1ccccc1F` was tested, and the EC50 was > 80 µM (inactive).
`CCCCCCCC(=O)Nc1ccc(C(=O)N/N=C/c2cccc([N+](=O)[O-])c2)cc1` gave a pEC50 of 4.76.
`Cc1cccc(OCCN2CSC(=S)N(C)C2)c1` was tested, and the EC50 was > 80 µM (inactive).
`Cc1ccc(C(C)C)c(OCc2ccc(C(=O)N/N=C/c3ccc(O)c(O)c3)cc2)c1` gave a pEC50 of 5.36.
With `COC(=O)c1cc(=O)n(Cc2ccco2)c(=Nc2ccc(F)c(Cl)c2)s1` the EC50 was > 80 µM (inactive).
In the case of `CCc1ccc2nc(N(CCCN(C)C)C(=O)c3ccc(S(=O)(=O)N4CCc5ccccc5C4)cc3)sc2c1`, the EC50 was > 80 µM (inactive).
`O=C1C=CC(=O)N1c1ccc(N2CCCCC2)cc1` was tested, and the EC50 was > 80 µM (inactive).
For `COc1ccc(C(=O)N/N=C(\C)c2ccccn2)cc1OC`, the EC50 was > 80 µM (inactive).
`CCOC(=O)c1c(CSC(=N)N)n(-c2ccc(C)cc2)c2cc(Br)c(OC(C)=O)cc12` was tested, and the EC50 was > 80 µM (inactive).
`C/C(=N\NC(=O)c1cc(Br)ccc1O)c1ccccn1` was tested, and the EC50 was > 80 µM (inactive).
In the case of `Brc1ccccc1CN1CCN(Cc2c[nH]c3ccccc23)CC1`, the EC50 was > 80 µM (inactive).
`COc1ccccc1/C=N\Nc1cc(C)nc(-n2nc(C)cc2C)n1` was tested, and the EC50 was > 80 µM (inactive).
`COc1ccc2cc1Oc1ccc(cc1)CC1c3c(cc(OC)c4c3Oc3cc5c(cc3O4)CCNC5C2)CCN1C` (configuration not stated) was tested, and the EC50 was > 80 µM (inactive).
For `COc1cc(C(=O)Nc2nc(-c3ccc(Cl)cc3)c(C)s2)ccc1OCC(=O)Nc1ccc(F)cc1`, the EC50 was > 80 µM (inactive).
With `C/C(=N\NC(=O)C(C)Oc1ccc([N+](=O)[O-])cc1)c1ccccn1` (configuration not stated) the EC50 was > 80 µM (inactive).
`Oc1ccc(CN2CCN(c3ccccc3)CC2)c2cccnc12` was tested, and the EC50 was > 80 µM (inactive).
For `COc1ccc(C(=O)Nc2ccccc2C(=O)N/N=C/c2ccccn2)cc1OC`, the EC50 was > 80 µM (inactive).
